Earlier results in article PMC6835763, “Influence of Short Cationic Lipopeptides with Fatty Acids of Different Chain Lengths on Bacterial Biofilms Formed on Polystyrene and Hydrogel Surfaces” (Pharmaceutics, 2019).

Columns and labels:
Conditions in all cases: cited from earlier work
PM biofilm = test system: PM biofilm
Excerpt: (§1) They were ineffective against PM, which was difficult to eradicate with peptides (and antibiotics) in previously performed studies. PM can cause infections of the urinary tract, skin, subcutaneous tissue, and wounds. PM is known as a biofilm former, and an evident increase of PM resistance to broad-spectrum fluoroquinolones and cephalosporins has been observed. In the previous study, mature PM b ...

PA biofilm = test system: PA biofilm
Excerpt: as §1

EC biofilm = test system: EC biofilm
Excerpt: as §1

SA biofilms = test system: SA biofilms; parameters: method as in PMID 24779193

Compound	susceptibility of mature PM biofilms (PM biofilm)	activity against PA biofilm (PA biofilm)	activity against EC biofilms (EC biofilm)	susceptibility of SA biofilms (SA biofilms)	concentration eliminating PA biofilm (PA biofilm; 3-day-old structures)	effective concentration against EC biofilm (EC biofilm)
neomycin	resistant	weak antibiofilm agents	rather weak activity	resistant		
O=C(O)c1cn(C2CC2)c2cc(N3CCNCC3)c(F)cc2c1=O [ciprofloxacin]	resistant			resistant	4 µg/mL	1 µg/mL
